Several values for one entry are separate records, joined by “and”; a condition that tells them apart may be missing. Equal values may be shown once. *1 amine or outer side, *2 acyl side, *3 side chain or, on linkers, in order; H or OH if unused. Where a SMILES comes first, the peptide text is derived from it. Bridges are numbered along the chain shown (N, C = ends). Roman numbers before positions name the chains, in order. [ ]: non-standard residue; d: D form. Actinocin(9to1) = Cc1c2oc3c(C)ccc(C(=O)[*:1])c3nc-2c(C(=O)[*:2])c(N)c1=O; NMeV = CN[C@H](C(=O)O)C(C)C; Sar = CNCC(=O)O

Series [1] concerns p21 1300 bp promoter fragment. In words: Induction of p21 1300 bp promoter fragment (ZsGreen fluorescence) in pGL3-basic-ZsGreen-1300 transfected A2780 clones. The format is cell-based, human. The conditions noted are these: for Activation of the 1300 bp fragment of the p21 promoter by DNA damaging agents: dose response, clones 1 and 5 (FIG. 1); for Activation of the 1300 bp fragment of the p21 promoter by DNA damaging agents / Fold induction (fluorescence after induction divided by fluorescence of DMSO treated cells): 24 h; for Fold induction (fluorescence after induction divided by fluorescence of DMSO treated cells): Fluoroskan; for Fold induction: first screen of 80 clones, the two clones measurable with Fluoroskan. Here is the method: A2780 cells were plated into a 6-well plate at a density of 2×10^5 cells, incubated for 24 hours, and transfected with 2 ug of pGL3-basic-ZsGreen-1300 and 0.2 ug of pSV2neo vector by using Lipofectamine 2000 (Invitrogen, Brussels, Belgium) as described by manufacturer. The transfected cells were selected for 10 days with G418 (Gibco-BRL, Gaithersburg, Md.) and single cell suspensions were grown. After three weeks, 80 single clones were obtained.
The A2780 transfected pool and the selected 80 clones were expanded and seeded at 10000 cells per well into 96-well plates. 24 hours after seeding, the cells were treated for an additional 24 hours with targeted compounds (affecting sp1 sites in the proximal p21 promoter region) or DNA damaging agents (affecting p53 responsive elements). Subsequently, cells were fixed with 4% PFA for 30′ and counterstained with Hoechst dye. The p21 promoter activation leading to ZsGreen production and thus fluorescence, was monitored by the Ascent Fluoroskan (Thermo Labsystems, Brussels, Belgium) and by fluorescence microscope (Zeiss).

Series [2] relates to pGL3-basic-ZsGreen-1300 transfected A2780 xenograft. Put plainly: In vivo xenograft fluorescence, Automated Whole Body Imaging System. More on the design: species or system nude mice. Here is the method: The selected clone was injected subcutaneous (10^7 cells/200 μl) into the flank of nude mice and a calliper measurable tumor was obtained after 12 days. From day 12 on, animals were orally dosed daily during 6 days with solvent, 20 mpk Mitsui (a.k.a. MS-275—Shering—Registry Number 209783-80-2) or 40 mpk compound X (10, 10 and 4 animals respectively). Tumors were evaluated for fluorescence by the in-house developed Automated Whole Body Imaging System (Fluorescent stereomicroscope type Olympus® SZX12 equipped with a GFP filter and coupled to a CCD camera type JAI® CV-M90 controlled by a software package based on the IMAQ Vision Software from National Instruments®).

Series [3] deals with tumor. As to conditions: PK/PD studies; cited from earlier work.
In series [4] the test system is p53RE_tk in A2780 cells. Put plainly: Induction of p53RE_tk activity (ZsGreen fluorescence) in transfected A2780 clones. As to conditions: 24 h, Fluoroskan; for Fold induction (fluorescence after induction divided by fluorescence of DMSO treated cells): A2780 clone 36, 10 ng/ml. The format is cell-based, human. Here is the method: (§1) A2780 cells and HCT116 cells were plated into a 6-well plate at a density of 4×10^5 cells, incubated for 24 hours, and transfected with 2 ug of p53RE_TK/pGL3-basic-ZsGreen and 0.2 ug of pMC1-neo-Poly A vector by using Lipofectamine and Plus Reagent (Invitrogen, Brussels, Belgium) as described by manufacturer. The transfected cells were selected for 16 days with G418 (Gibco-BRL, Gaithersburg, Md.) and single cell suspensions were grown. After three weeks, 60 single clones were obtained from the transfected HCT116 cells and 40 single clones were obtained from the transfected A2780 cells.
(§2) The A2780 and the HCT116 transfected pool and the selected clones were expanded and seeded at 20000 cells per well into 96-well plates. 24 hours after seeding, the cells were treated for an additional 24 hours with DNA damaging agents (affecting p53 responsive elements). The p53RE_tk activation leading to ZsGreen production and thus fluorescence, was monitored by the Ascent Fluoroskan (Thermo Labsystems, Brussels, Belgium) and by fluorescence microscope (Zeiss).

Series [5] has as its system p53RE_tk in HCT116 cells. In words: Induction of p53RE_tk activity (ZsGreen fluorescence) in transfected HCT116 clones. As to conditions: 24 h. The format is cell-based. Here is the method:
as §1, §2

[6] abbreviates: 20 mpk orally daily for 6 days from day 12, clone 1 and 5 xenograft, nude mice.

As to `CC[C@@]1(O)C(=O)OCc2c1cc1n(c2=O)Cc2cc3ccccc3nc2-1` [Camptothecin], the figures for the “Activation of the 1300 bp fragment of the p21 promoter by DNA damaging agents” value (shortened to “Activation”) in series [1] and in series [1] (listed as Campthotecin) were “not able to activate” and “non-responsivness”, respectively.

Regarding `COc1cccc2c1C(=O)c1c(O)c3c(c(O)c1C2=O)C[C@@](O)(C(=O)CO)C[C@@H]3O[C@H]1C[C@H](N)[C@H](O)[C@H](C)O1` [Doxorubicin], the entries for the “Activation” value in series [1] and in series [1] (listed as doxorubicin) were “not able to activate” and “non-responsivness”, respectively.

Turning to `Nc1ccccc1NC(=O)c1ccc(CNC(=O)OCc2cccnc2)cc1` [Mitsui], the “Fold induction (fluorescence after induction divided by fluorescence of DMSO treated cells)” value in series [1] (clone 1, 10^−6M) was 2 fold and 1.8 fold. Further, in series [1] (10^−6, 24 h), the Fold induction is listed as 1.2-1.5 fold. Moreover, the “ZsGreen production in pGL3-basic-ZsGreen-1300 transfected A2780 cells in vitro” value (from here on “ZsGreen production”) in series [1] is “induce ZsGreen production”. Moreover, in series [2] (setting [6]), the “Time after administration of the first dose at which induction of ZsGreen was very clear” value amounted to 3 days and the “Time after starting the treatment at which ZsGreen induction reached a plateau” value stood at 5 days. Moreover, the “Basal ZsGreen expression and induction, detection by Automated Whole Body Imaging System” value in series [2] (20 mpk, clone 2 and 3 xenograft, nude mice) is on record as “too low”. In addition, the “Induction of fluorescence in the xenograft” value in series [2] (after 4 days of treatment) was “induces fluorescence”. In series [3], the “Compound reaches the tumor” value is recorded as “can reach the tumor” and the “Concentration reached in the tumor” value was “high enough to stop the tumor from growing”.

Regarding `O=C(CCCCCCC(=O)Nc1ccccc1)NO` [SAHA, suberoylanilide hydroxamic acid], in series [1], the “ZsGreen production” value is “induce ZsGreen production”.

Consider `CC(/C=C/C(=O)NO)=C\[C@@H](C)C(=O)c1ccc(N(C)C)cc1` [TSA, trichostatin A], for which the “Fold induction (fluorescence after induction divided by fluorescence of DMSO treated cells)” value in series [1] (clone 1, 10^−7M) is 5 fold. Moreover, the Fold induction in series [1] (10^−7, 24 h) is 5 fold. The “ZsGreen production” value in series [1] is listed as “induce ZsGreen production”.

Take `Cc1c2oc3c(C)ccc(C(=O)N[C@@H]4C(=O)N[C@H](C(C)C)C(=O)N5CCC[C@H]5C(=O)N(C)CC(=O)N(C)[C@@H](C(C)C)C(=O)O[C@@H]4C)c3nc-2c(C(=O)N[C@@H]2C(=O)N[C@H](C(C)C)C(=O)N3CCC[C@H]3C(=O)N(C)CC(=O)N(C)[C@@H](C(C)C)C(=O)O[C@@H]2C)c(N)c1=O` [actinomycin D] (I: T[dV]P[Sar][NMeV] / II: T[dV]P[Sar][NMeV]; ester I:1-I:C, II:1-II:C; linker I:N-II:N via Actinocin(9to1)): the “Fold induction (fluorescence after induction divided by fluorescence of DMSO treated cells)” value was 2 fold in series [4] and “strong induction factor” in series [4] (listed as actinomycinD). Also, the Induction of fluorescence result in series [4] (the 2 responding A2780 clones, 10 ng/ml) is recorded as “at least a two fold induction”; in series [5] (HCT116 clones 5 and 36, 10 ng/ml), “strong induction factor”; in series [5] (the 6 responding HCT116 clones, 10 ng/ml, Fluoroskan), “at least a two fold induction”.

For the compound Bleomycin, the “Activation” value in series [1] is “not able to activate”; in series [1] (listed as bleomycin), “non-responsivness”.
